In US20090068290A1, “BIFEPRUNOX DOSES FOR TREATING SCHIZOPHRENIA” (priority 2006, published 2009):

What was measured:
[1] = system: adult subjects with schizophrenia; experiment: BPRS total score, Clinical Study Two; format: in vivo, human; conditions: for Change from Baseline in BPRS Total Score, Mean (SD) / Change from Baseline in BPRS Total Score, Median / Change from Baseline in BPRS Total Score, Trt Effect (bifeprunox—placebo) / mean change (SD) from Baseline to Endpoint in BPRS total score: LOCF; for Change from Baseline in BPRS Total Score, Mean (SD) / Change from Baseline in BPRS Total Score, Median / Change from Baseline in BPRS Total Score, Trt Effect (bifeprunox—placebo): ITT population; for BPRS total score, treatment effect (bifeprunox—placebo): Endpoint LOCF; for mean change (SD) from Baseline to Endpoint in BPRS total score: ITT
Description: (§1) Rating scale assessments were performed weekly, except for week 5, to measure the change from baseline to endpoint of the PANSS total score. Other assessments included: PANSS positive symptom subscale score, PANSS negative symptom subscale score, PANSS general pschopathology subscale score, BPRS total score, BPRS psychosis score, the CGI-S score, the CGI-I score, responder rates based on the PANSS total score, and the Calgary Depression Scale for Schizophrenia (CDSS). […]
Subjects who completed this study had the option to continue in the long-term. […] Blood samples were also obtained at Screening/Baseline, Week 3, and Week 6 for clinical laboratory assessments.

[2] = system: adult subjects with schizophrenia; experiment: CGI Improvement score, Clinical Study Two; format: in vivo, human; conditions: LOCF
Description: as §1
Subjects who completed this study had the option to continue in the long-term. […] Risperidone-treated subjects were titrated from 2 mg to 6 mg daily over a three-day period and were subsequently maintained at 6 mg/day for the remainder of the treatment period. […] Blood samples were also obtained at Screening/Baseline, Week 3, and Week 6 for clinical laboratory assessments.

[3] = Bifeprunox 30 mg, Week 6/Endpoint
[4] = Bifeprunox 40 mg, Week 6/Endpoint

Structure (SMILES): O=c1[nH]c2cccc(N3CCN(Cc4cccc(-c5ccccc5)c4)CC3)c2o1 [Bifeprunox, 7-[4-([1,1′-biphenyl]-3-ylmethyl)-1-piperazinyl]-2(3H)-benzoxazolone]
- Change from Baseline in BPRS Total Score, Mean (SD) ([1]; Bifeprunox 30 mg, Week 1): −3.8 (7.0)
- Change from Baseline in BPRS Total Score, Median ([1]; Bifeprunox 30 mg, Week 1): −3
- Change from Baseline in BPRS Total Score, Mean (SD) ([1]; Bifeprunox 30 mg, Week 2): −7.0 (9.5)
- Change from Baseline in BPRS Total Score, Median ([1]; Bifeprunox 30 mg, Week 2): −6
- Change from Baseline in BPRS Total Score, Mean (SD) ([1]; Bifeprunox 30 mg, Week 3): −7.93 (10.7)
- Change from Baseline in BPRS Total Score, Median ([1]; Bifeprunox 30 mg, Week 3): −6
- Change from Baseline in BPRS Total Score, Mean (SD) ([1]; Bifeprunox 30 mg, Week 4): −8.2 (11.5)
- Change from Baseline in BPRS Total Score, Median ([1]; Bifeprunox 30 mg, Week 4): −7
- Change from Baseline in BPRS Total Score, Mean (SD) [1, 3]: −8.1 (12.3)
- Change from Baseline in BPRS Total Score, Median [1, 3]: −7
- Change from Baseline in BPRS Total Score, Trt Effect (bifeprunox—placebo) [1, 3]: −3.2
- Change from Baseline in BPRS Total Score, Mean (SD) ([1]; Bifeprunox 40 mg, Week 1): −4.3 (7.1)
- Change from Baseline in BPRS Total Score, Median ([1]; Bifeprunox 40 mg, Week 1): −4
- Change from Baseline in BPRS Total Score, Mean (SD) ([1]; Bifeprunox 40 mg, Week 2): −5.5 (9.3)
- Change from Baseline in BPRS Total Score, Median ([1]; Bifeprunox 40 mg, Week 2): −6
- Change from Baseline in BPRS Total Score, Mean (SD) ([1]; Bifeprunox 40 mg, Week 3): −6.3 (10.3)
- Change from Baseline in BPRS Total Score, Median ([1]; Bifeprunox 40 mg, Week 3): −6
- Change from Baseline in BPRS Total Score, Mean (SD) ([1]; Bifeprunox 40 mg, Week 4): −5.7 (10.9)
- Change from Baseline in BPRS Total Score, Median ([1]; Bifeprunox 40 mg, Week 4): −4
- Change from Baseline in BPRS Total Score, Mean (SD) [1, 4]: −6.5 (11.7)
- Change from Baseline in BPRS Total Score, Median [1, 4]: −5
- Change from Baseline in BPRS Total Score, Trt Effect (bifeprunox—placebo) [1, 4]: −1.9
- BPRS total score, treatment effect (bifeprunox—placebo) ([1]; bifeprunox 30 mg): −3.2
- mean change (SD) from Baseline to Endpoint in BPRS total score ([1]; bifeprunox 30 mg): −8.1 (12.3)
- BPRS total score, treatment effect (bifeprunox—placebo) ([1]; bifeprunox 40 mg): −1.9
- mean change (SD) from Baseline to Endpoint in BPRS total score ([1]; bifeprunox 40 mg): −6.5 (11.7)
- CGI Improvement Minimally Improved, % ([2]; 30 mg, Week 2): (33%)
- CGI Improvement Minimally Worse, % ([2]; 30 mg, Week 2): (8%)
- CGI Improvement Much Improved, % ([2]; 30 mg, Week 2): (29%)
- CGI Improvement Much Worse, % ([2]; 30 mg, Week 2): (3%)
- CGI Improvement No Change, % ([2]; 30 mg, Week 2): (24%)
- CGI Improvement Very Much Improved, % ([2]; 30 mg, Week 2): (3%)
- CGI Improvement Very Much Worse, % ([2]; 30 mg, Week 2): (<1%)
- CGI Improvement Minimally Improved, % ([2]; 30 mg, Week 3): (28%)
- CGI Improvement Minimally Worse, % ([2]; 30 mg, Week 3): (7%)
- CGI Improvement Much Improved, % ([2]; 30 mg, Week 3): (27%)
- CGI Improvement Much Worse, % ([2]; 30 mg, Week 3): (4%)
- CGI Improvement No Change, % ([2]; 30 mg, Week 3): (26%)
- CGI Improvement Very Much Improved, % ([2]; 30 mg, Week 3): (6%)
- CGI Improvement Very Much Worse, % ([2]; 30 mg, Week 3): (<1%)
- CGI Improvement Minimally Improved, % ([2]; 30 mg, Week 4): (26%)
- CGI Improvement Minimally Worse, % ([2]; 30 mg, Week 4): (9%)
- CGI Improvement Much Improved, % ([2]; 30 mg, Week 4): (26%)
- CGI Improvement Much Worse, % ([2]; 30 mg, Week 4): (4%)
- CGI Improvement No Change, % ([2]; 30 mg, Week 4): (24%)
- CGI Improvement Very Much Improved, % ([2]; 30 mg, Week 4): (9%)
- CGI Improvement Very Much Worse, % ([2]; 30 mg, Week 4): (<1%)
- CGI Improvement Minimally Improved, % ([2]; 30 mg, Week 6/Endpoint): (21%)
- CGI Improvement Minimally Worse, % ([2]; 30 mg, Week 6/Endpoint): (11%)
- CGI Improvement Much Improved, % ([2]; 30 mg, Week 6/Endpoint): (28%)
- CGI Improvement Much Worse, % ([2]; 30 mg, Week 6/Endpoint): (6%)
- CGI Improvement No Change, % ([2]; 30 mg, Week 6/Endpoint): (24%)
- CGI Improvement Very Much Improved, % ([2]; 30 mg, Week 6/Endpoint): (9%)
- CGI Improvement Very Much Worse, % ([2]; 30 mg, Week 6/Endpoint): (<1%)
- CGI Improvement Minimally Improved, % ([2]; 40 mg, Week 2): (37%)
- CGI Improvement Minimally Worse, % ([2]; 40 mg, Week 2): (7%)
- CGI Improvement Much Improved, % ([2]; 40 mg, Week 2): (19%)
- CGI Improvement Much Worse, % ([2]; 40 mg, Week 2): (11%)
- CGI Improvement No Change, % ([2]; 40 mg, Week 2): (22%)
- CGI Improvement Very Much Improved, % ([2]; 40 mg, Week 2): (4%.)
- CGI Improvement Minimally Improved, % ([2]; 40 mg, Week 3): (30%)
- CGI Improvement Minimally Worse, % ([2]; 40 mg, Week 3): (6%)
- CGI Improvement Much Improved, % ([2]; 40 mg, Week 3): (21%)
- CGI Improvement Much Worse, % ([2]; 40 mg, Week 3): (14%)
